{"source": "patent US6495585B2", "about": "“Method for treating hyperproliferative tissue in a mammal” (Health Research, Inc., priority 2001, dated 2002)", "key": {"implanted murine tumors": {"system": "implanted murine tumors", "conditions": "compared with FAA; cited from earlier work"}, "TNF-α": {"system": "TNF-α", "conditions": "cited from earlier work"}, "[1]": {"system": "cultured human and murine cells", "conditions": "cited from earlier work"}, "RIF-1 tumors": {"system": "RIF-1 tumors", "procedure": "The drawings illustrate the responses of RIF-1 tumors to either PDT (FIG. 2a) or DMXAA (FIG. 2b). Dose response data are shown in the form of Kaplan-Meier ‘survival’ plots, where the percent of RIF-1 tumors with volumes less than […] are plotted against time from treatment. Tumor volumes at the time of treatment were 50-70 mg (approximately […] of the mouse body mass).\nIn pilot studies of PDT plus adjuvant DMXAA only low doses of each modality were chosen. […] 23 hours, 20 mg DMXAA/kg. 2 hours, 135 J/cm^263-nm laser light. Control tumors (no drug, no light) are shown as solid black squares; DMXAA are shown as open circles; PDT alone as gray circles.\nThe symbols in the graph are the same as for FIG. 3."}, "tumor cell lines": {"system": "tumor cell lines", "conditions": "cited from earlier work"}, "[2]": {"system": "natural killer cell activity", "conditions": "spleen and other tissues; cited from earlier work"}, "tumor blood flow": {"system": "tumor blood flow", "conditions": "in vivo; cited from earlier work"}, "Colon 38 tumors": {"system": "Colon 38 tumors", "conditions": "compared with FAA; cited from earlier work"}}, "data": [{"compound": "Cc1ccc2c(=O)c3cccc(CC(=O)O)c3oc2c1C", "note": "[DMXAA, 5,6-Dimethylxanthenone-4-acetic acid]", "values": [{"measurement": "dose potency against implanted murine tumors", "setting": "implanted murine tumors", "value": "considerably greater dose potencies than FAA"}, {"measurement": "cytokine induction", "setting": "TNF-α", "value": "induce TNF-α along with IFN-γ"}, {"measurement": "in vitro activity", "setting": "[1]", "value": "active in vitro"}, {"measurement": "tumor control (percent of RIF-1 tumors with volumes less than 400 mm vs time from treatment)", "setting": "RIF-1 tumors; administered alone, Kaplan-Meier plots, FIG. 2a/2b", "value": "control tumors in a dose-dependent manner"}, {"measurement": "toxicity of most effective doses", "setting": "RIF-1 tumors; mouse, in vivo", "value": "most effective doses are at or near the treatment toxic limits"}]}, {"compound": "O=C(O)Cc1cccc2c(=O)cc(-c3ccccc3)oc12", "note": "[FAA, Flavone-8-acetic acid]", "values": [{"measurement": "in vitro activity against tumor cell lines", "setting": "tumor cell lines", "value": "shows in vitro activity against a number of tumor cell lines"}, {"measurement": "natural killer cell activity", "setting": "[2]", "value": "induces natural killer cell activity"}, {"measurement": "effect on tumor blood flow", "setting": "tumor blood flow", "value": "causes reduction in tumor blood flow"}]}, {"compound": "O=C(O)Cc1cccc2c(=O)c3ccccc3oc12", "note": "[XAA, Xanthenone-4-acetic acid]", "values": [{"measurement": "efficiency in eliminating Colon 38 tumors", "setting": "Colon 38 tumors", "value": "more efficient than FAA"}]}]}
